Experimental findings from EP2818472A1, “Imidazo[4,5-c]pyridine and pyrrolo[3,2-c]pyridine compounds as G-protein-coupled receptor kinase 5 (GRK5) modulators” (Max-Planck-Gesellschaft zur Förderung der Wissenschaften …, priority 2013, dated 2014) are described below.

The assay has as its system beta-TC6 cells. Nature of the assay: Insulin HTRF assay (relative activity Ar) in beta-TC6 cells. It counts as cell-based, mouse. To be noted: Mus musculus, Beta-TC6, 4 h, insulin HTRF, supernatant of beta-TC6 cells, incubation with test compound at 37°C for 2, 3, 4h; read-out: Ar (relative activity). An outline of the steps: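 beta-TC6 cells (15k/well, seeded 24 or 48 h) washed, then exposed to compound in induction buffer (0.5% DMSO final) for 2, 3 or 4 h at 37°C.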
For orientation: Time-resolved FRET reads energy transfer from a long-lived donor to a nearby acceptor.
As to `CC(=O)N(C)c1cccc(-c2cc3cnc(Nc4cccnc4)cc3n2C)c1` [Compound 162, N-methyl-N-[3-[1-methyl-6-(3-pyridylamino)pyrrolo[3,2-c]pyridin-2-yl]phenyl]acetamide], the Emax was 50 to 100%.
To `Cn1c(-c2ccccc2)cc2c(Nc3ccc(C(N)=O)cc3)nccc21` [Compound 325, 4-[(1-methyl-2-phenyl-pyrrolo[3,2-c]pyridin-4-yl)amino]benzamide] belongs 30 to 50%.
To `CNc1nc2cnc(Nc3ccc(F)cc3)cc2n1Cc1cccnc1` [Compound 565, N6-(4-fluorophenyl)-N2-methyl-1-(3-pyridylmethyl)imidazo[4,5-c]pyridine-2,6-diamine] belongs 50 to 100%; to `COc1ccc(-c2nc3c(N4CCN(C)CC4)nccc3[nH]2)cc1` [Compound 396, 2-(4-methoxyphenyl)-4-(4-methylpiperazin-1-yl)-1H-imidazo[4,5-c]pyridine], 30 to 50%; to `COc1cc(-c2cc3c(cn2)nc(NCc2ccccc2F)n3C)ccc1O` [Compound 656, 4-[2-[(2-fluorophenyl)methylamino]-1-methyl-imidazo[4,5-c]pyridin-6-yl]-2-methoxy-phenol], 30 to 50%.
To `COc1ccc(Nc2nccc3c2cc(-c2ccsc2)n3C)cc1OC` [Compound 274, N-(3,4-dimethoxyphenyl)-1-methyl-2-(3-thienyl)pyrrolo[3,2-c]pyridin-4-amine] belongs 30 to 50%; to `Cc1cccc(CNc2nc3cnc(Nc4ccc(F)cc4)cc3n2C)c1` [Compound 582, N6-(4-fluorophenyl)-1-methyl-N2-(m-tolylmethyl)imidazo[4,5-c]pyridine-2,6-diamine], 30 to 50%; to `CNc1nc2cnc(Nc3ccc(NC(C)=O)cc3)cc2n1-c1cccc(C(F)(F)F)c1` [Compound 540, N-[4-[[2-(methylamino)-1-[3-(trifluoromethyl)phenyl]imidazo[4,5-c]pyridin-6-yl]amino]phenyl]acetamide], 30 to 50%.
Regarding `COc1cccc(Nc2cc3[nH]c(-c4cncn4C)cc3cn2)c1` [Compound 101, N-(3-methoxyphenyl)-2-(3-methylimidazol-4-yl)-1H-pyrrolo[3,2-c]pyridin-6-amine], the Emax lay in the range of 50 to 100%.
To `COc1cccc(Nc2cc3c(cn2)cc(-c2cnn(C)c2)n3C)c1` [Compound 127, N-(3-methoxyphenyl)-1-methyl-2-(1-methylpyrazol-4-yl)pyrrolo[3,2-c]pyridin-6-amine] belongs 50 to 100%; to `Fc1cccc(-c2cc3c(N4CCOCC4)nccc3[nH]2)c1` [Compound 187, 4-[2-(3-fluorophenyl)-1H-pyrrolo[3,2-c]pyridin-4-yl]morpholine], 30 to 50%.
For `CC(=O)Nc1cccc(Nc2nccc3[nH]c(-c4ccsc4)cc23)c1` [Compound 266, N-[3-[[2-(3-thienyl)-1H-pyrrolo[3,2-c]pyridin-4-yl]amino]phenyl]acetamide] the value was 50 to 100%.
Consider `CC(=O)c1cccc(Nc2cc3c(cn2)cc(-c2cccnc2)n3C)c1` [Compound 97, 1-[3-[[1-methyl-2-(3-pyridyl)pyrrolo[3,2-c]pyridin-6-yl]amino]phenyl]ethanone], for which the Emax is 30 to 50%.
For `COc1cccc(-c2cc3c(Nc4ccc(OC)nc4)nccc3[nH]2)c1` [Compound 307, 2-(3-methoxyphenyl)-N-(6-methoxy-3-pyridyl)-1H-pyrrolo[3,2-c]pyridin-4-amine] the value was 50 to 100%; for `COc1cc(OC)cc(-c2cc3c(Nc4cccc(NS(C)(=O)=O)c4)nccc3[nH]2)c1` [Compound 292, N-[3-[[2-(3,5-dimethoxyphenyl)-1H-pyrrolo[3,2-c]pyridin-4-yl]amino]phenyl]methanesulfonamide], 30 to 50%; for `Cc1cccc(Nc2cc3c(cn2)nc(-c2ccco2)n3C)c1` [Compound 709, 2-(2-furyl)-1-methyl-N-(m-tolyl)imidazo[4,5-c]pyridin-6-amine], 50 to 100%.
With `COc1ccc(-c2nc3c(N4CCOCC4)nccc3[nH]2)cc1OC` [Compound 353, 4-[2-(3,4-dimethoxyphenyl)-1H-imidazo[4,5-c]pyridin-4-yl]morpholine], the Emax is 50 to 100%.
As for `Cn1c(-c2ccsc2)cc2c(Nc3ccc4c(c3)OCCO4)nccc21` [Compound 273, N-(2,3-dihydro-1,4-benzodioxin-6-yl)-1-methyl-2-(3-thienyl)pyrrolo[3,2-c]pyridin-4-amine], the Emax fell in the range of 30 to 50%.
For `c1ccc(Cn2cnc3c(NCc4cccs4)nccc32)cc1` [Compound 452, 1-benzyl-N-(2-thienylmethyl)imidazo[4,5-c]pyridin-4-amine] the value was 30 to 50%.
For `CN(C)c1ccc(-c2cc3c(N4CCOCC4)nccc3[nH]2)cc1` [Compound 189, N,N-dimethyl-4-(4-morpholino-1H-pyrrolo[3,2-c]pyridin-2-yl)aniline] the value was more than 100%; for `CN(C)C(=O)c1ccc(-c2cc3cnc(Nc4ccc(OC(F)(F)F)cc4)cc3[nH]2)cc1` [Compound 34, N,N-dimethyl-4-[6-[4-(trifluoromethoxy)anilino]-1H-pyrrolo[3,2-c]pyridin-2-yl]benzamide], 0 to 30%; for `NC(=O)c1ccc(Nc2nccc3[nH]c(-c4cccc(F)c4)nc23)cc1` [Compound 403, 4-[[2-(3-fluorophenyl)-1H-imidazo[4,5-c]pyridin-4-yl]amino]benzamide], 30 to 50%.
For `COc1ccc(Nc2cc3c(cn2)nc(-c2ccccc2)n3C)c(OC)c1` [Compound 703, N-(2,4-dimethoxyphenyl)-1-methyl-2-phenyl-imidazo[4,5-c]pyridin-6-amine] the value was 30 to 50%; for `CNc1nc2cnc(Nc3ccc(OC)c(OC)c3)cc2n1Cc1ccc(OC)c(OC)c1` [Compound 665, N6-(3,4-dimethoxyphenyl)-1-[(3,4-dimethoxyphenyl)methyl]-N2-methyl-imidazo[4,5-c]pyridine-2,6-diamine], 50 to 100%; for `CN(C)C(=O)c1ccc(-c2cc3cnc(Nc4cccc(O)c4)cc3n2C)cc1` [Compound 53, 4-[6-(3-hydroxyanilino)-1-methyl-pyrrolo[3,2-c]pyridin-2-yl]-N,N-dimethyl-benzamide], 50 to 100%.
Take `COc1ccc(Nc2nccc3[nH]c(-c4cccc(O)c4)nc23)cc1` [Compound 362, 3-[4-(4-methoxyanilino)-1H-imidazo[4,5-c]pyridin-2-yl]phenol]: the Emax is 50 to 100%.
For `COc1ccccc1-c1cc2c(Nc3ccccn3)nccc2n1C` [Compound 304, 2-(2-methoxyphenyl)-1-methyl-N-(2-pyridyl)pyrrolo[3,2-c]pyridin-4-amine] the value was 30 to 50%; for `CC(=O)Nc1cccc(Nc2cc3c(cn2)cc(-c2cnn(C)c2)n3Cc2ccccc2)c1` [Compound 157, N-[3-[[1-benzyl-2-(1-methylpyrazol-4-yl)pyrrolo[3,2-c]pyridin-6-yl]amino]phenyl]acetamide], 50 to 100%; for `Cn1cc(-c2cc3cnc(Nc4cccc(O)c4)cc3n2C)cn1` [Compound 144, 3-[[1-methyl-2-(1-methylpyrazol-4-yl)pyrrolo[3,2-c]pyridin-6-yl]amino]phenol], more than 100%.
Consider `COc1ccc(-c2nc3c(NCC4CC4)nccc3[nH]2)cc1` [Compound 400, N-(cyclopropylmethyl)-2-(4-methoxyphenyl)-1H-imidazo[4,5-c]pyridin-4-amine], for which the Emax was in the range of 30 to 50%.
